≈ marks a conversion by molar mass, not a printed value. Where “and” joins values, the source holds several entries; their conditions need not be identical. Identical values can stand only once.
Key:
[1] = tested on: Bacillus subtilis IAM 1145; assay: Antimicrobial spectrum, agar dilution MIC; type: cell-based; conditions: medium A, 37 °C, 24 hrs
Method: (§1) Conditions for the measurements of the antimicrobial sepctra are as follows:
(§2) 80 mg of aflastatin A was dissolved in 4 ml of dimethyl sulfoxide (DMSO). This solution was diluted with DMSO to prepare a dilution series by two times as test solutions. The test solutions were filtrated with a filter and sterilized. 50 μl of each of them was added to 10 ml of a sterilized agar medium at 60° C. to prepare a dilution series of agar media. To each of the agar media, test strains were inoculated for antimicrobial activity. Media used for the tests are as follows:
(§3) A: Nutrient agar (manufactured by Nihon Suisan K.K.)

[2] = tested on: Escherichia coli IFO 14249; assay: Antimicrobial spectrum, agar dilution MIC; type: cell-based; conditions: medium A, 37 °C, 24 hrs
Method: as §1, §2, §3

[3] = tested on: Psuedomonas aeruginosa IAM 1514; assay: Antimicrobial spectrum, agar dilution MIC; type: cell-based; conditions: medium A, 37 °C, 24 hrs
Method: as §1, §2, §3

[4] = tested on: Staphylococcus aureus IFO 13276; assay: Antimicrobial spectrum, agar dilution MIC; type: cell-based; conditions: medium A, 37 °C, 24 hrs
Method: as §1, §2, §3

[5] = tested on: Candida albicans IFO 1594; assay: Antimicrobial spectrum, agar dilution MIC; type: cell-based; conditions: medium C, 30 °C, 48 hrs
Method: as §1, §2
(§4) C: Sabouraud agar (manufactured by Nihon Suisan K.K.)

[6] = tested on: Saccharomyces cerevisiae IFO 0250; assay: Antimicrobial spectrum, agar dilution MIC; type: cell-based; conditions: medium C, 30 °C, 48 hrs
Method: as §1, §2, §4

[7] = tested on: Trichophyton mentagrophytes IFO 5809; assay: Antimicrobial spectrum, agar dilution MIC; type: cell-based; conditions: medium C, 30 °C, 48 hrs
[8] = tested on: Fusarium graminearum ATCC 34909; type: cell-based
[9] = tested on: Aspergillus parasiticus NRRL 2999; assay: Antimicrobial spectrum, agar dilution MIC; type: cell-based; conditions: medium B, 27 °C, 48 hrs
Method: as §1, §2
B: Potato dextrose agar (manufactured by Nihon Suisan K.K.)

[10] = tested on: Pyricularia oryzae IFO 30732; type: cell-based
Solubility = type: physicochemical
ddy series male mice = assay: Toxicity, single administration to mice; type: in vivo
Method: Aflastatin A was suspended in a 0.25% carboxymethylcellulose solution and the suspension was administered to ddy series male mice. […] By single oral administration, no mice died in an administered amount of 1,000 mg/kg or less.

[11] = tested on: Aspergillus parasiticus NRRL 2999; type: cell-based
[12] = tested on: Aspergillus parasiticus NRRL 2999; design: key: -: no growth; +: growth delayed; ++: fine growth; conditions: in vivo
adenocarcinoma 755 = assay: Antitumor activity, subcutaneously transplanted adenocarcinoma 755 in BDFI mice; type: in vivo, mouse; conditions: for Antitumor activity / Weight of tumor: four successive days, day 14; for Antitumor activity: control 100.0; for Weight of tumor: mean ± SD of six mice, control 1617.8 ± 179.07
Method: BDFI mice having a weight of from 21.0 to 24.3 g were divided into four groups each being 6 mice. A physiological saline suspension of adenocarcinoma 755 cells collected from subcultured 11th day mouse and adjusted, was transplanted subcutaneously at a right ventral portion of each mouse at a rate of 5×10^5 cells/0.5 ml/mouse.
The day of transplantation was regarded as the day 0. From the next day, intraperitoneal administration was carried out once a day for four successive days to each group at a rate of aflastatin A administration of 0.3 mg/kg/day, 1 mg/kg/day, or 3 mg/kg/day. The aflastatin A was suspended in a 0.25% carboxymethyl cellulose solution (manufactured by Nakarai Tesk) and administered at a dose of 10 ml/kg. The rest of the four groups was used as a control.
By the day 14, general conditions were observed every day, and the mice were clubbed to death at the day 14. Solid tumors were collected and their wet weights were measured. From the measured tumor weights, inhibitory ratios against the control group were calculated and antitumor activities were determined. The tumor weight is represented by an average of six mice±standard deviation.

CCCCCCCCCC(O)C[C@]1(O)O[C@H](CC(O)C(O)C(O)C(O)C(O)CC(O)CC(O)CC(O)C(C)C(O)C(C)C(O)CC(O)C(C)C(O)C(C)C(O)C(C)C(O)C(O)CC(C)CC(C)/C=C(C)/C(O)=C2/C(=O)C(C)N(C)C2=O)[C@@H](O)[C@H](O)[C@@H]1O (stereo partly drawn) [aflastatin A]
MIC [1]: 0.39 µg/mL (≈ 0.31 µM)
MIC [2]: > 100 µg/mL
MIC [3]: > 100 µg/mL
MIC [4]: 0.78 µg/mL (≈ 0.62 µM)
MIC [5]: 0.39 µg/mL (≈ 0.31 µM)
MIC [6]: < 0.19 µg/mL
MIC [7]: 0.39 µg/mL (≈ 0.31 µM)
MIC [8]: > 100 µg/mL
MIC [9]: > 100 µg/mL
MIC [10]: > 0.19 µg/mL
Solubility (Solubility; aqueous butanol): slightly soluble
Solubility (Solubility; aqueous ethanol): slightly soluble
Solubility (Solubility; dimethyl sulfoxide): Soluble
Solubility (Solubility; glycerol): slightly soluble
Solubility (Solubility; methanol): slightly soluble
Solubility (Solubility; other organic solvents): practically insoluble
Solubility (Solubility; water): practically insoluble
LD50 (ddy series male mice; single intraperitoneal administration, suspended in 0.25% carboxymethylcellulose): 6.17 mg/kg
Mortality (ddy series male mice; single oral administration, 1,000 mg/kg or less): no mice died
Colony diameter [11]: 7.8 ± 0.2 cm and 6.5 ± 0.2 cm and 5.5 ± 0.3 cm
Growth of strains [12]: ++
Antitumor activity (adenocarcinoma 755; 0.3 mg/kg/day i.p.): 42.0%
Weight of tumor (adenocarcinoma 755; 0.3 mg/kg/day i.p.): 680.2 ± 176.63 mg
Antitumor activity (adenocarcinoma 755; 1 mg/kg/day i.p.): 24.3%
Weight of tumor (adenocarcinoma 755; 1 mg/kg/day i.p.): 392.8 ± 87.07 mg
Dose assessment (adenocarcinoma 755; 3 mg/kg/day i.p.): overdose
Mortality (printed in the column weight of tumor) (adenocarcinoma 755; 3 mg/kg/day i.p.): All mice died by the day 3
